Results taken from PubChem BioAssay (NCI).
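All cell lines were grown in 96-well plates and treated with compound for 48 hours. GI50: concentration for 50% inhibition of growth. At the TGI there is no net growth.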

Tests used:
Test in all cases: NCI-60 cell line screen, 48 h
SNB-78 CNS = tested on: SNB-78 CNS
KM20L2 colon = tested on: KM20L2 colon
M19-MEL melanoma = tested on: M19-MEL melanoma
XF 498 CNS = tested on: XF 498 CNS
MDA-MB-231 breast = tested on: MDA-MB-231 breast
T-47D breast = tested on: T-47D breast
BT-549 breast = tested on: BT-549 breast
DU-145 prostate = tested on: DU-145 prostate
MDA-MB-435 = tested on: MDA-MB-435
NCI/ADR-RES ovarian = tested on: NCI/ADR-RES ovarian

| SMILES | TGI (SNB-78 CNS) | TGI (KM20L2 colon) | TGI (M19-MEL melanoma) | TGI (XF 498 CNS) | also measured |
| --- | --- | --- | --- | --- | --- |
| COC(=O)C(C(=O)C(=O)Nc1cccc(O)c1)c1nc2ccc(Cl)cc2[nH]c1=O (stereo not given) | > 100 µM | > 100 µM | > 100 µM |  |  |
| COC(=O)CCC(NC(=S)N/N=C(\C)c1ccccn1)C(=O)OC (stereo not given) |  | > 100 µM | > 100 µM | > 100 µM |  |
| CC(=O)OC1(C#N)CC2OC1C1C2N1C(=O)c1ccccc1 (stereo not given) | > 100 µM | > 100 µM | > 100 µM | > 100 µM |  |
| COc1c(OC(C)=O)cc2c(OC(C)=O)c1CC(C)CC(OC)C(O)C(C)/C=C(\C)C(OC(N)=O)C(OC)/C=C\C=C(/C)C(=O)N2 (stereo not given) | > 100 µM | > 100 µM | > 100 µM | > 100 µM |  |
| Cc1ccc2nc3c(Cl)cc(=O)cc-3sc2c1 | > 100 µM |  | 36 µM |  |  |
| C/C(CN1C(=O)c2ccccc2C1=O)=N\NS(=O)(=O)c1ccccc1 | > 100 µM | > 100 µM | > 100 µM |  |  |
| CCC(=O)C1=C(OC(C)=O)C2Cc3c(n(C)c4ccccc34)C(C1)N2C (stereo not given) | 56.4 µM | > 100 µM | > 100 µM |  |  |
| COc1cc2cc3c4c(cc(OC)c(OC)c4c2cc1OC)CCN3C(=O)CCCC(=O)O | > 100 µM | > 100 µM | > 100 µM |  |  |
| NC(=S)N/N=C(/CC(=O)c1ccc([N+](=O)[O-])cc1)C(=O)Nc1ncc([N+](=O)[O-])s1 | > 100 µM | > 100 µM | > 100 µM | > 100 µM |  |
| Nc1nnc2nc(CC(=O)/C=C/c3ccccc3)c(=O)[nH]n12 | > 100 µM | > 100 µM | > 100 µM | > 100 µM |  |
| Cc1c2ccccc2c(C)c2c3c(ccc12)C(=O)C=CC3=O | 38 µM | > 100 µM | 35.8 µM | 31.6 µM |  |
| CC(C)(O)[C@@H]1CCC(C)([C@H]2[C@@H](O)CC3(C)C4CC(OC5OC(CO)C(O)C(O)C5O)C5C(C)(C)[C@@H](OC6OCC(O)C(O)C6O)CC[C@@]56C[C@@]46CC[C@]23C)O1 (stereo not given in full) | > 100 µM | > 100 µM | > 100 µM | > 100 µM |  |
| CCOc1ccccc1NC(=O)C(=O)CC(=O)C1=C(C)Nc2ccccc2S1 | > 100 µM | > 100 µM | > 100 µM | > 100 µM |  |
| CCCOc1ccc(/C(Cl)=C(\C=O)c2ccc(OC)c(OC)c2)cc1OCCC | > 100 µM | > 100 µM | 31.1 µM | 33.1 µM |  |
| OC1CN(OC/C=C/c2ccccc2)CC(O)C1O (stereo not given) | > 100 µM | > 100 µM | > 100 µM | > 100 µM |  |
| COc1ccc2c(=O)c([Se]c3coc4cc(OC)ccc4c3=O)coc2c1 | 67 µM | > 100 µM | > 100 µM | > 100 µM |  |

| SMILES | TGI (SNB-78 CNS) | TGI (KM20L2 colon) | TGI (M19-MEL melanoma) | TGI (XF 498 CNS) | also measured |
| --- | --- | --- | --- | --- | --- |
| CC(C)c1cc(C(C)C)c(S(=O)(=O)NN)c(C(C)C)c1 | > 100 µM | > 100 µM | > 100 µM |  |  |
| CC(=O)NNc1nc(C)c(C(=O)NNC(=O)C(=O)Nc2ccc(C)c(C)c2)s1 | > 100 µM | > 100 µM | > 100 µM |  |  |
| C/C(=N/O)C1CC=C(S(=O)(=O)c2ccccc2)C1 (stereo not given) |  | > 100 µM | > 100 µM |  |  |
| CC(=O)OC1C=CC2CCN3C(=O)c4cc5c(cc4[C@H]1C23)OCO5 (stereo not given in full) | > 100 µM | > 100 µM | > 100 µM |  |  |
| Cc1cc2c3ccccc3n(C)c2c2c1C(=O)c1ccccc1C2=O |  |  | 10.3 µM | 35.7 µM |  |
| CCOP(=O)(CCP(=O)(OCC)OCC)OCC.C[CH2][Sn]([Cl])([Cl])[CH2]C | 41.8 µM | > 100 µM | > 60.4 µM |  | GI50 (MDA-MB-231 breast): 25 µM; TGI (MDA-MB-231 breast): 92.2 µM; GI50 (SNB-78 CNS): 17.2 µM; GI50 (T-47D breast): 18.5 µM; TGI (T-47D breast): 40.9 µM; GI50 (BT-549 breast): 17.8 µM; TGI (BT-549 breast): 33.8 µM; GI50 (KM20L2 colon): > 68.2 µM; GI50 (DU-145 prostate): > 100 µM; TGI (DU-145 prostate): > 100 µM; GI50 (M19-MEL melanoma): 24.8 µM; GI50 (MDA-MB-435): > 100 µM; TGI (MDA-MB-435): > 100 µM; GI50 (NCI/ADR-RES ovarian): > 100 µM; TGI (NCI/ADR-RES ovarian): > 100 µM |
| CCOC(=O)CC(=O)ON(C)C(=O)Cc1ccccc1 | > 100 µM | > 100 µM | > 100 µM |  |  |
| CCSC1(SCC)CCN(C=NC(C)(C)C)C1 | > 100 µM | > 100 µM | > 100 µM | > 100 µM |  |
| COc1ccc(/C=C2\N=C(c3ccccc3)OC2=O)c(OCc2ccccc2)c1 |  | > 100 µM | > 100 µM |  |  |
| O=C(CC(=O)N1N=C(n2ccc3ccccc32)CC1c1ccccc1)Nc1cccc(Cl)c1 (stereo not given) | > 100 µM | > 100 µM | > 100 µM |  |  |
| NC(=O)c1ccccc1NC(=O)C(=O)C(C(=O)c1ccc2ccccc2c1)C1OC(=O)c2ccccc21 (stereo not given) | > 100 µM | 81.4 µM | 25.5 µM | 12.8 µM |  |
| O=C(CCc1nnc2s/c(=C\c3ccccc3)c(=O)n12)Nc1cc(Cl)ccc1Cl | > 100 µM | > 100 µM | > 100 µM | > 100 µM |  |
| Cc1ccc(SSCCCS(=O)O)cc1 |  | > 100 µM | > 100 µM | > 100 µM |  |
| C/C(=N\NC(=O)CC(=O)Nc1ccc(C)cc1)c1cc2ccccc2oc1=O |  | > 100 µM | > 100 µM | > 100 µM |  |
| COc1ccc(/C=C2/C(=O)N(C(=O)c3ccccc3O)N=C2C)cc1OC | > 100 µM | > 100 µM | 65.4 µM | > 100 µM | TGI (MDA-MB-231 breast): > 100 µM; TGI (BT-549 breast): > 100 µM; TGI (DU-145 prostate): > 100 µM; TGI (MDA-MB-435): > 100 µM; TGI (NCI/ADR-RES ovarian): > 100 µM |
| C=CCN1C(=O)/C(=c2\sc3n(c2=O)C2C(NN=3)N(CC)C(=O)N2CC)c2ccccc21 (stereo not given) |  |  |  |  | GI50 (MDA-MB-231 breast): 1.23 µM; TGI (MDA-MB-231 breast): 7.96 µM; GI50 (T-47D breast): 0.438 µM; TGI (T-47D breast): > 100 µM; GI50 (BT-549 breast): 1.65 µM; TGI (BT-549 breast): > 75.6 µM; GI50 (DU-145 prostate): 0.59 µM; TGI (DU-145 prostate): > 37.3 µM; GI50 (MDA-MB-435): 0.207 µM; TGI (MDA-MB-435): 0.491 µM; GI50 (NCI/ADR-RES ovarian): 0.434 µM; TGI (NCI/ADR-RES ovarian): > 40.5 µM |
